Test results from patent publication US20260132132A1, “3A,4,5,6-TETRAHYDRO-1 H-PYRAZOLO[3,4-C]PYRIDIN-7(7AH)-ONE DERIVATIVES AS FACTOR XIIA INHIBITORS” (KALVISTA PHARMACEUTICALS LIMITED, priority 2022, published 2026).

Biological target: T1, Human Factor XIIa (hFXIIa) (Homo sapiens, UniProt P00748)
T1 construct: purchased Enzyme Research Laboratories
T1 sequence (P00748 373-615 limits assumed): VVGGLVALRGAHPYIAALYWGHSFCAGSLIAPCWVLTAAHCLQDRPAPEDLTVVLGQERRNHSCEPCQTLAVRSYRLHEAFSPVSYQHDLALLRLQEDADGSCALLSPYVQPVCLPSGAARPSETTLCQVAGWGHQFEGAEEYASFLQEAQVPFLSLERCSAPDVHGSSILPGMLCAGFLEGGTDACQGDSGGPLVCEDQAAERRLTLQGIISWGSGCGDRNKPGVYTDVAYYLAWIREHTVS
T1 sequence (P00748 20-372 partner limits assumed): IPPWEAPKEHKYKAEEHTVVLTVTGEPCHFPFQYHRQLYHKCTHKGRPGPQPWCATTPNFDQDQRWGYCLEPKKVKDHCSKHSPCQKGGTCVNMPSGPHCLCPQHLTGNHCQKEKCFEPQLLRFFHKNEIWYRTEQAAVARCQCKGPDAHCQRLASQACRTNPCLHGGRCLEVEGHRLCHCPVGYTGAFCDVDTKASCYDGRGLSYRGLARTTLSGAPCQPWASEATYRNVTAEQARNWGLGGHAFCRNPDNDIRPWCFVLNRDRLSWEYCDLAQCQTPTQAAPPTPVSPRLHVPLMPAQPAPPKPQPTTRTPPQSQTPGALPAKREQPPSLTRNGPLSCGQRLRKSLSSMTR
Assay: Determination of Human Factor XIIa (hFXIIa) inhibition, fluorogenic substrate IC50 assay
Assay type: biochemical
Conditions: fluorogenic substrate H-DPro-Phe-Arg-AFC at Km, 25° C., read-out: Human FXIIa IC50
Description: Determination of Human Factor XIIa (hFXIIa) inhibition
The Km for the cleavage of the substrate by hFXIIa was determined by standard transformation of the Michaelis-Menten equation, with subsequent inhibition assays performed at substrate Km concentration.

IC50	Structure (SMILES)
100 to 300 nM	COCC(C)N1CCc2ccc(N3CCc4c(C(=O)NCC5CC5)nn(-c5cccc(Cl)c5)c4C3=O)cc2C1 (centres unmarked) [Example 1060, 1-(3-chlorophenyl)-N-(cyclopropylmethyl)-6-(2-(1-methoxypropan-2-yl)-1,2,3,4-tetrahydroisoquinolin-7-yl)-7-oxo-4,5,6,7-tetrahydro-1H-pyrazolo[3,4-c]pyridine-3-carboxamide]
100 to 300 nM	CCOCCN1CCc2ccc(N3CCc4c(C(=O)NCC5CC5)nn(-c5cccc(Cl)c5)c4C3=O)cc2C1 [Example 1061, 1-(3-chlorophenyl)-N-(cyclopropylmethyl)-6-(2-(2-ethoxyethyl)-1,2,3,4-tetrahydroisoquinolin-7-yl)-7-oxo-4,5,6,7-tetrahydro-1H-pyrazolo[3,4-c]pyridine-3-carboxamide]
300 to 1000 nM	CN1CCc2ccc(N3CCc4c(C(=O)NC5(C)CCOCC5)nn(-c5cccc(Cl)c5)c4C3=O)cc2C1 [Example 1064, 1-(3-chlorophenyl)-6-(2-methyl-1,2,3,4-tetrahydroisoquinolin-7-yl)-N-(4-methyltetrahydro-2H-pyran-4-yl)-7-oxo-4,5,6,7-tetrahydro-1H-pyrazolo[3,4-c]pyridine-3-carboxamide]
10 to 100 nM	Cc1cc(CNC(=O)c2nn(-c3cccc(Cl)c3)c3c2CCN(c2ccc4c(c2)CN(C)CC4)C3=O)[nH]n1 [Example 1065, 1-(3-chlorophenyl)-6-(2-methyl-1,2,3,4-tetrahydroisoquinolin-7-yl)-N-((3-methyl-1H-pyrazol-5-yl)methyl)-7-oxo-4,5,6,7-tetrahydro-1H-pyrazolo[3,4-c]pyridine-3-carboxamide]
1000 to 3000 nM	CN1CCc2ccc(N3CCc4c(C(=O)N5CCOCC5)nn(-c5cccc(Cl)c5)c4C3=O)cc2C1 [Example 1067, 1-(3-chlorophenyl)-6-(2-methyl-1,2,3,4-tetrahydroisoquinolin-7-yl)-3-(morpholine-4-carbonyl)-1,4,5,6-tetrahydro-7H-pyrazolo[3,4-c]pyridin-7-one]
300 to 1000 nM	COCc1nn(-c2cccc(Cl)c2)c2c1CCN(c1ccc3c(c1)CN(CCO)CC3)C2=O [Example 1069, 1-(3-chlorophenyl)-6-(2-(2-hydroxyethyl)-1,2,3,4-tetrahydroisoquinolin-7-yl)-3-(methoxymethyl)-1,4,5,6-tetrahydro-7H-pyrazolo[3,4-c]pyridin-7-one]
100 to 300 nM	C[C@H](O)CN1CCc2ccc(N3CCc4c(C(=O)NCC5CC5)nn(-c5cccc(Cl)c5)c4C3=O)cc2C1 [Example 1070, (S)-1-(3-chlorophenyl)-N-(cyclopropylmethyl)-6-(2-(2-hydroxypropyl)-1,2,3,4-tetrahydroisoquinolin-7-yl)-7-oxo-4,5,6,7-tetrahydro-1H-pyrazolo[3,4-c]pyridine-3-carboxamide]
100 to 300 nM	CCN1CCc2ccc(N3CCc4c(C(=O)NCc5cc(C)n[nH]5)nn(-c5cccc(Cl)c5)c4C3=O)cc2C1 [Example 1086, 1-(3-chlorophenyl)-6-(2-ethyl-1,2,3,4-tetrahydroisoquinolin-7-yl)-N-((3-methyl-1H-pyrazol-5-yl)methyl)-7-oxo-4,5,6,7-tetrahydro-1H-pyrazolo[3,4-c]pyridine-3-carboxamide]
100 to 300 nM	O=C(NCC1CC1)c1nn(-c2cccc(Cl)c2)c2c1CCN(c1ccc3c(c1)CN(CCCO)CC3)C2=O [Example 1087, 1-(3-chlorophenyl)-N-(cyclopropylmethyl)-6-(2-(3-hydroxypropyl)-1,2,3,4-tetrahydroisoquinolin-7-yl)-7-oxo-4,5,6,7-tetrahydro-1H-pyrazolo[3,4-c]pyridine-3-carboxamide]

Second part, the compound before the results:

Structure (SMILES)	IC50
CN1CCc2ccc(N3CCc4c(C(=O)NCC(O)C5CC5)nn(-c5cccc(Cl)c5)c4C3=O)cc2C1 (centres unmarked) [Example 1058, 1-(3-chlorophenyl)-N-(2-cyclopropyl-2-hydroxyethyl)-6-(2-methyl-1,2,3,4-tetrahydroisoquinolin-7-yl)-7-oxo-4,5,6,7-tetrahydro-1H-pyrazolo[3,4-c]pyridine-3-carboxamide]	300 to 1000 nM
CCC(C)N1CCc2ccc(N3CCc4c(C(=O)NCC5CC5)nn(-c5cccc(Cl)c5)c4C3=O)cc2C1 (centres unmarked) [Example 1059, 6-(2-(sec-butyl)-1,2,3,4-tetrahydroisoquinolin-7-yl)-1-(3-chlorophenyl)-N-(cyclopropylmethyl)-7-oxo-4,5,6,7-tetrahydro-1H-pyrazolo[3,4-c]pyridine-3-carboxamide]	100 to 300 nM
CN1CCc2ccc(N3CCc4c(C(=O)N[C@@H](CO)c5ccccc5)nn(-c5cccc(Cl)c5)c4C3=O)cc2C1 [Example 1063, (R)-1-(3-chlorophenyl)-N-(2-hydroxy-1-phenylethyl)-6-(2-methyl-1,2,3,4-tetrahydroisoquinolin-7-yl)-7-oxo-4,5,6,7-tetrahydro-1H-pyrazolo[3,4-c]pyridine-3-carboxamide]	100 to 300 nM
COCc1nn(-c2cccc(Cl)c2)c2c1CCN(c1ccc3c(c1)CN(C)CC3)C2=O [Example 1066, 1-(3-Chlorophenyl)-3-(methoxymethyl)-6-(2-methyl-1,2,3,4-tetrahydroisoquinolin-7-yl)-1,4,5,6-tetrahydro-7H-pyrazolo[3,4-c]pyridin-7-one]	1000 to 3000 nM
CN1CCc2ccc(N3CCc4c(C(=O)NCc5ccoc5)nn(-c5cccc(Cl)c5)c4C3=O)cc2C1 [Example 1068, 1-(3-chlorophenyl)-N-(furan-3-ylmethyl)-6-(2-methyl-1,2,3,4-tetrahydroisoquinolin-7-yl)-7-oxo-4,5,6,7-tetrahydro-1H-pyrazolo[3,4-c]pyridine-3-carboxamide]	100 to 300 nM
O=C(NCC1CC1)c1nn(-c2cccc(Cl)c2)c2c1CCN(c1ccc3c(c1)CN(CC(F)(F)F)CC3)C2=O [Example 1071, 1-(3-chlorophenyl)-N-(cyclopropylmethyl)-7-oxo-6-(2-(2,2,2-trifluoroethyl)-1,2,3,4-tetrahydroisoquinolin-7-yl)-4,5,6,7-tetrahydro-1H-pyrazolo[3,4-c]pyridine-3-carboxamide]	1000 to 3000 nM
O=C(NCC1CC1)c1nn(-c2cccc(Cl)c2)c2c1CCN(c1cccc(CN3CCCC3)c1)C2=O [Example 1072, 1-(3-Chlorophenyl)-N-(cyclopropylmethyl)-7-oxo-6-(3-(pyrrolidin-1-ylmethyl)phenyl)-4,5,6,7-tetrahydro-1H-pyrazolo[3,4-c]pyridine-3-carboxamide]	1000 to 3000 nM
O=C(NCC1CC1)c1nn(-c2cccc(Cl)c2)c2c1CCN(c1cccc(CN3CC4CC4C3)c1)C2=O (centres unmarked) [Example 1073, 6-(3-((3-azabicyclo[3.1.0]hexan-3-yl)methyl)phenyl)-1-(3-chlorophenyl)-N-(cyclopropylmethyl)-7-oxo-4,5,6,7-tetrahydro-1H-pyrazolo[3,4-c]pyridine-3-carboxamide]	1000 to 3000 nM
CN1CCc2ccc(N3CCc4c(C(=O)NC5CC6CCC5O6)nn(-c5cccc(Cl)c5)c4C3=O)cc2C1 (centres unmarked) [Example 1075, N-(7-oxabicyclo[2.2.1]heptan-2-yl)-1-(3-chlorophenyl)-6-(2-methyl-1,2,3,4-tetrahydroisoquinolin-7-yl)-7-oxo-4,5,6,7-tetrahydro-1H-pyrazolo[3,4-c]pyridine-3-carboxamide]	100 to 300 nM
O=C(NCC1CC1)c1nn(-c2cccc(Cl)c2)c2c1CCN(c1ccc3c(c1)CN(CCCF)CC3)C2=O [Example 1080, 1-(3-chlorophenyl)-N-(cyclopropylmethyl)-6-(2-(3-fluoropropyl)-1,2,3,4-tetrahydroisoquinolin-7-yl)-7-oxo-4,5,6,7-tetrahydro-1H-pyrazolo[3,4-c]pyridine-3-carboxamide]	100 to 300 nM
CC(=O)NCCN1CCc2ccc(N3CCc4c(C(=O)NCC5CC5)nn(-c5cccc(Cl)c5)c4C3=O)cc2C1 [Example 1081, 6-(2-(2-acetamidoethyl)-1,2,3,4-tetrahydroisoquinolin-7-yl)-1-(3-chlorophenyl)-N-(cyclopropylmethyl)-7-oxo-4,5,6,7-tetrahydro-1H-pyrazolo[3,4-c]pyridine-3-carboxamide]	300 to 1000 nM
CCN1Cc2cc(N3CCc4c(C(=O)NCC5CC5)nn(-c5cccc(Cl)c5)c4C3=O)ccc2C(C)(C)C1 [Example 1082, 1-(3-chlorophenyl)-N-(cyclopropylmethyl)-6-(2-ethyl-4,4-dimethyl-1,2,3,4-tetrahydroisoquinolin-7-yl)-7-oxo-4,5,6,7-tetrahydro-1H-pyrazolo[3,4-c]pyridine-3-carboxamide]	300 to 1000 nM
CS(=O)(=O)NCCN1CCc2ccc(N3CCc4c(C(=O)NCC5CC5)nn(-c5cccc(Cl)c5)c4C3=O)cc2C1 [Example 1083, 1-(3-chlorophenyl)-N-(cyclopropylmethyl)-6-(2-(2-(methylsulfonamido)ethyl)-1,2,3,4-tetrahydroisoquinolin-7-yl)-7-oxo-4,5,6,7-tetrahydro-1H-pyrazolo[3,4-c]pyridine-3-carboxamide]	100 to 300 nM
CNC(=O)NCCN1CCc2ccc(N3CCc4c(C(=O)NCC5CC5)nn(-c5cccc(Cl)c5)c4C3=O)cc2C1 [Example 1084, 1-(3-chlorophenyl)-N-(cyclopropylmethyl)-6-(2-(2-(3-methylureido)ethyl)-1,2,3,4-tetrahydroisoquinolin-7-yl)-7-oxo-4,5,6,7-tetrahydro-1H-pyrazolo[3,4-c]pyridine-3-carboxamide]	100 to 300 nM
